According to patent US20230346820A1, “METHODS AND COMPOSITIONS FOR THE TREATMENT OF SARS-COV-2” (priority 2020, published 2023):
Where two headings read alike, the source gives them in different places.

How the values were obtained:
HeLa-ACE2 cells = assay: cells; type: cell-based, human; details: Homo sapiens, HeLa-ACE2, read-out: HeLa-ACE-2 EC50 [μM] (Geomeans, n ≥ 2)
SARS-CoV-2 [1] = system: SARS-CoV-2
SARS-CoV-2 [2] = system: SARS-CoV-2; remark: listed apart in the source
in vitro [3] = details: human
in vitro [4] = details: human; remark: listed apart in the source
Experimental: To assess cell viability, 2 μL of 50% Cell-Titer Glo (Promega No G7573) diluted in water was added to the cells and luminescence measured on an EnVision Plate Reader (Perkin Elmer).
Data analysis. […] Primary in vitro screen and the host cell cytotoxicity counter screen data were uploaded to Genedata Screener, Version 16.0.3-Standard. […] For the uninfected host cell cytotoxicity counter screens, 40 μM puromycin (Sigma) was used as the positive (inhibitory) control in HeLa-ACE2, HepG2 and HEK293T cells, and 30 μM puromycin (Sigma) was used as the positive (inhibitory) control for Calu-3 cells. For dose response experiments compounds were tested in technical triplicates on different assay plates and dose curves were fitted with the four parameter Hill Equation. Technical replicate data were analyzed using median condensing. Geometric means and geometric standard deviations are reported for compound activities (EC50s and CC50s) obtained in multiple independent biological experiments. […] Geometric means were calculated by computing the logarithm (base 10) of all values, calculating the mean of these logarithms, and taking the antilog of that mean. Geometric standard deviations were computed by taking the standard deviation of the log-transformed individual values and taking the antilog of that standard deviation. The geometric standard deviation is a unitless ratio and reported as ×÷ instead of +/−.

SARS-CoV-2 [5] = assay: microbe, parasite or virus in culture
SARS-CoV-2 [6] = assay: microbe, parasite or virus in culture; details: Severe acute respiratory syndrome coronavirus 2, Calu-3, 48 h, read-out: Calu-3 CoV-2 EC50 [μM]
[7] = HeLa-ACE2 Uninfected Tox CC50 [μM]
[8] = Severe acute respiratory syndrome coronavirus 2, HeLa-ACE2, read-out: HeLa-ACE2 CoV-2 EC50 [μM]
[9] = HeLa-ACE2 Uninfected Tox CC50 [μM], Table 4, aggregated data, Geomean, n = 3
[10] = Severe acute respiratory syndrome coronavirus 2, HeLa-ACE2, read-out: HeLa-ACE2 CoV-2 EC50 [μM], Table 4, aggregated data, Geomean, n = 3

| Structure (SMILES) | EC50 (HeLa-ACE2 cells) [µM] | HeLa-ACE2 CC50/CoV-2 EC50 (SARS-CoV-2 [1]) | HeLa-ACE2 SI CC50/CoV-2 EC50 (SARS-CoV-2 [1]) | Calu3 SI CC50/CoV-2 EC50 (SARS-CoV-2 [2]; Table 4) | CC50 (in vitro [3]; CC50 [μM] (Geomeans, n ≥ 2 except where indicated: *n = 1)) [µM] | CC50 (in vitro [3]; [7]) [µM] | CC50 (in vitro [4]) [µM] | EC50 (SARS-CoV-2 [5]; Severe acute respiratory syndrome coronavirus 2, HeLa-ACE2, 24 h, read-out: CoV-2 EC50 [μM] (Geomeans, n ≥ 2)) [µM] | EC50 (SARS-CoV-2 [5]; [8]) [µM] | EC50 (SARS-CoV-2 [6]) [µM] | CC50 (in vitro [3]; [9]) [µM] | EC50 (SARS-CoV-2 [5]; [10]) [µM] | HeLa-ACE2 SI CC50/CoV-2 EC50 (SARS-CoV-2 [1]; Table 4) | CC50 (in vitro [3]) [µM] | CC50 at 48 h (in vitro [4]) [µM] | Calu3 SI CC50/CoV-2 EC50 (SARS-CoV-2 [2]) |
| --- | --- | --- | --- | --- | --- | --- | --- | --- | --- | --- | --- | --- | --- | --- | --- | --- |
| C[C@H]1O[C@@H](O[C@H]2[C@@H](O)C[C@@H](O[C@@H]3[C@@H](O)C[C@H](O[C@H]4CC[C@@]5(C)[C@H](CC[C@@H]6[C@@H]5C[C@@H](O)[C@]5(C)[C@@H](C7=CC(=O)OC7)CC[C@]65O)C4)O[C@@H]3C)O[C@@H]2C)C[C@H](O)[C@@H]1O (stereo in doubt) [Digoxin] | 0.325 | 0.72 | 0.72 | >29.80 | 0.12 | 0.12 | > 5.04 | 0.166 | 0.166 | 0.17 | – | – | – | – | – | – |
| CC(N)c1ccc(C(=O)Nc2ccncc2)cc1-c1ccc(F)cc1 (stereo not shown) [AMA-0076] | – | – | – | >16 | – | – | > 29.9 | – | – | 3.87 | 35.8 | > 9.59 | – | – | – | – |
| O=c1[nH]c(=O)n([C@@H]2O[C@H](CO)[C@@H](O)[C@H]2O)cc1F [Analog of OGT-719] | – | – | – | 7.44 | – | – | 8.73 | – | – | 1.17 | 0.109 | 4.02 | 0.03 | – | – | – |
| CCCCCCC1C(=O)O[C@H](C)[C@H](NC(=O)c2cccc(NC=O)c2O)C(=O)O[C@@H](C)[C@@H]1OC(=O)CC(C)C (stereo partly shown) [Antimycin A] | – | – | – | 22.00 | – | – | 0.608 | – | – | 0.028 | > 39.8 | > 9.59 | – | – | – | – |
| COC(=O)[C@@]12OC[C@]34[C@H]([C@@H](O)[C@@H]1O)[C@@]1(C)CC(=O)C(O)=C(C)[C@@H]1C[C@H]3OC(=O)[C@H](OC(=O)/C=C(\C)C(C)C)[C@@H]24 [Bruceantin] | – | – | – | 50.22 | – | – | 0.973 | – | – | 0.019 | 0.117 | 0.006 | 20.18 | – | – | – |
| COC1CC(OC2CCC3(C=O)[C@H]4CCC5(C)C(C6=CC(=O)OC6)CCC5(O)[C@@H]4CCC3(O)C2)OC(C)C1O (stereo partly shown) [CYMARINE] | – | – | – | 43.53 | – | – | 5.87 | – | – | 0.135 | 0.287 | 0.237 | 1.21 | – | – | – |
| CC[C@H]1CN2CCc3cc(OC)c(OC)cc3[C@@H]2C[C@@H]1C[C@H]1NCCc2cc(O)c(OC)cc21 [Cephaeline] | – | – | – | 34.84 | – | – | – | – | 0.017 | 0.142 | – | – | 12.66 | 0.212 | 4.96 | – |
| C[C@@H]1C[C@@H]([C@H](O)CC2CC(=O)NC(=O)C2)C(=O)[C@@H](C)C1 [Cycloheximide] | – | – | – | 12.50 | – | – | – | – | 0.634 | 0.195 | – | – | 2.32 | 1.47 | 2.44 | – |
| CNC(=O)n1ccc2cc(Oc3ccnc(NC(=O)c4ccc(C5CCN(CCO)CC5)cc4)c3)c(OCCOC)cc21 [E-7090] | – | – | – | 19.88 | – | – | 15 | – | – | 0.753 | 21.2 | 2.65 | 8.01 | – | – | – |
| CC[C@H]1CN2CCc3cc(OC)c(OC)cc3[C@@H]2C[C@@H]1C[C@H]1NCCc2cc(OC)c(OC)cc21 [Emetine] | – | – | – | 19.97 | – | – | 8.87 | – | – | 0.444 | 0.34 | 0.06 | 5.66 | – | – | – |
| CCCCCCCC/C=C/CCCCCCCC(=O)OC[C@H]1O[C@@H](n2ccc(N)nc2=O)C(F)(F)[C@@H]1O [Gemcitabine elaidate] | – | – | – | >92 | – | – | > 29.9 | – | – | 0.324 | 6.01 | > 9.59 | – | – | – | – |
| CC(=O)O[C@H]1C[C@H](O[C@H]2[C@@H](O)C[C@H](O[C@H]3[C@@H](O)C[C@H](O[C@H]4CC[C@@]5(C)[C@H](CC[C@@H]6[C@@H]5C[C@@H](O)[C@]5(C)[C@@H](C7=CC(=O)OC7)CC[C@]65O)C4)O[C@@H]3C)O[C@@H]2C)O[C@H](C)[C@H]1O[C@@H]1O[C@H](CO)[C@@H](O)[C@H](O)[C@H]1O [LANATOSIDE] | – | – | – | 31.97 | – | – | 6.21 | – | – | 0.194 | 1.35 | – | 6.56 | – | – | – |
| CC(C)(O)c1ccccc1-c1ccc2[nH]c(/C=C/c3ccc(C(F)(F)F)cc3)nc2c1 [Mavatrep] | – | – | – | 5.50 | – | – | 14.6 | – | – | 2.66 | 22.5 | > 9.59 | – | – | – | – |
| Sc1ncnc2nc[nH]c12 [Mercaptopurine] | – | – | – | 6.95 | – | – | 1.37 | – | – | 0.197 | 19.6 | 3.57 | 5.51 | – | – | – |
| CO[C@H]1[C@@H](O)C[C@H](O[C@H]2[C@@H](O)C[C@H](O[C@H]3[C@@H](O)C[C@H](O[C@H]4CC[C@@]5(C)[C@H](CC[C@@H]6[C@@H]5C[C@@H](O)[C@]5(C)[C@@H](C7=CC(=O)OC7)CC[C@]65O)C4)O[C@@H]3C)O[C@@H]2C)O[C@@H]1C [Metildigoxin] | – | – | – | 6.22 | – | – | – | – | 0.284 | 0.399 | – | – | 0.56 | 0.159 | 1.24 | – |
| CC[C@@H]1/C=C/C=C/C[C@H](C)[C@@H](O)[C@](C)(O)C(=O)[C@H](C)[C@@H](O)[C@H](C)C(=O)[C@H](C)[C@@H](O)[C@H](C)/C=C/C(=O)O[C@H]2[C@@H](C)[C@@H](CC1)O[C@@]1(CC[C@@H](C)[C@@H](C[C@H](C)O)O1)[C@@H]2C [OLIGOMYCINA] | – | – | – | >4000 | – | – | > 29.9 | – | – | 0.007 | 36 | > 9.59 | – | – | – | – |
| CC1OC(O[C@H]2CC[C@@]3(C=O)[C@H](CC[C@@H]4[C@@H]3CC[C@]3(C)[C@@H](C5=CC(=O)OC5)CC[C@]43O)C2)C(O)C(O)C1O (stereo partly shown) [Peruvoside (analog)] | – | – | – | 5.61 | – | – | 1.41 | – | – | 0.251 | 0.345 | 0.246 | 1.40 | – | – | – |
| CCCCCCCCCCCCCC(=O)O[C@@H]1[C@@H](C)[C@@]2(O)[C@@H](C=C(CO)C[C@]3(O)C(=O)C(C)=C[C@@H]23)[C@@H]2C(C)(C)[C@]12OC(C)=O [Phorbol 12-myristate 13-acetate] | – | – | – | 1384.37 | – | – | 22.5 | – | – | 0.016 | 0.201 | 0.07 | 2.89 | – | – | – |
| C=C(C)[C@]12C[C@@H](C)[C@@]34O[C@](Cc5ccccc5)(O[C@@H]1[C@@H]3C=C(COC(=O)Cc1ccc(O)c(OC)c1)C[C@]1(O)C(=O)C(C)=C[C@@H]41)O2 [Resiniferatoxin] | – | – | – | 19.13 | – | – | – | – | 1.3 | 0.903 | – | – | 5.53 | 7.17 | 17.3 | – |
| O=c1[nH]ccc2cc(OC3CCNCC3)ccc12 [SAR-407899] | – | – | – | >7.77 | – | – | > 29.9 | – | – | > 3.85 | > 38.7 | – | 4.03 | – | – | – |
| N=C(N)c1ccc2cc(OC(=O)c3ccc(CNC(=O)CCCC(=O)O)o3)ccc2c1 [TO-195] | – | – | – | >45 | – | – | > 29.9 | – | – | 0.657 | > 39.8 | > 9.59 | >6 | – | – | – |
| Nc1ncnc2c1ccn2[C@@H]1O[C@H](CO)[C@@H](O)[C@H]1O [TUBERCIDIN] | – | – | – | 9.68 | – | – | 1.07 | – | – | 0.111 | 0.557 | 0.183 | 3.04 | – | – | – |
| O=C(c1ccccc1)c1cccc(NC(=O)c2ccn3c2CSC3c2cccnc2)c1 (stereo not shown) [TULOPAFANT] | – | – | – | 5.01 | – | – | 14.6 | – | – | 2.92 | 36.6 | > 9.59 | – | – | – | – |
| CC(=O)O[C@H]1C[C@H](O[C@H]2[C@@H](O)C[C@H](O[C@H]3[C@@H](O)C[C@H](O[C@H]4CCC5(C)[C@H](CC[C@@H]6[C@@H]5CCC5(C)[C@@H](C7=CC(=O)OC7)[C@@H](O)CC65O)C4)O[C@@H]3C)O[C@@H]2C)O[C@H](C)[C@H]1O[C@@H]1O[C@H](CO)[C@@H](O)[C@H](O)[C@H]1O (stereo partly shown) [[…]] | – | – | – | 4.90 | – | – | 3.37 | – | – | 0.688 | 1.75 | 0.803 | 2.175 | – | – | – |
| C#C[C@]1(O)CC[C@H]2[C@@H]3CCc4cc(OS(=O)(=O)C(C)C)ccc4[C@H]3CC[C@@]21C [ethinyl estradiol sulfonate] | – | – | – | 5.59 | – | – | 6.86 | – | – | 1.23 | 20.4 | > 9.59 | – | – | – | – |
| COc1ccc2c(c1)c(CC(=O)NO)c(C)n2C(=O)c1ccc(Cl)cc1 [oxametacin] | – | – | 0.64 | – | – | 5.87 | 17.7 | – | 9.14 | 3.56 | – | – | – | – | – | 4.98 |
| Cn1c(C#N)ccc1-c1ccc2c(c1)C(C)(C)OC(=S)N2 [tanaproget] | – | – | – | 7.99 | – | – | 19.3 | – | – | 2.44 | 0.128 | 0.141 | 0.91 | – | – | – |
